# Source: patent US20150274719A1, “AMINO-SUBSTITUTED IMIDAZO[1,2-A]PYRIDINECARBOXAMIDES AND THEIR USE” (BAYER PHARMA AKTIENGESELLSCHAFT, priority 2012, published 2015)
# Counter-ions that a name gives are not always drawn.
# Target: T1, recombinant guanylate cyclase reporter cell line (Rattus norvegicus, UniProt P19686+P20595)
# T1 construct: expressed in transfected cells; host or cells: recombinant reporter cell line
# T1 sequence (P19686 1-690): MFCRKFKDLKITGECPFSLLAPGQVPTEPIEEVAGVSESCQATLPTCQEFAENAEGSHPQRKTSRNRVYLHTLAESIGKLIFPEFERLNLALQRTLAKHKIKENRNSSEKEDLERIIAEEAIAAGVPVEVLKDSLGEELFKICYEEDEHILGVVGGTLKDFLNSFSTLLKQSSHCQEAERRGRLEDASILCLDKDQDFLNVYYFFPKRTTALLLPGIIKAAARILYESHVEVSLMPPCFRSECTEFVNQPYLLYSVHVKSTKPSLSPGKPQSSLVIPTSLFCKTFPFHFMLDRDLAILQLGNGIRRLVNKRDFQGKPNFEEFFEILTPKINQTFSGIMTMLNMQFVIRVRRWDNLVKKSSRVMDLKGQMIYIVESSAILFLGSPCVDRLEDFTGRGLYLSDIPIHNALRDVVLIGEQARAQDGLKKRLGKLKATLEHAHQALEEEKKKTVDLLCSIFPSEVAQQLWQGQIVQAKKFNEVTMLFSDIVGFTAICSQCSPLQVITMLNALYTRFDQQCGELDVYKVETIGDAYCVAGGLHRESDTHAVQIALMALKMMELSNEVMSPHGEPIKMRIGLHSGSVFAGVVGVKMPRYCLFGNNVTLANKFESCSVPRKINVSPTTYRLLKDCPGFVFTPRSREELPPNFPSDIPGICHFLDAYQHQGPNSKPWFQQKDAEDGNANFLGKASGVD
# T1 sequence (P20595 1-619): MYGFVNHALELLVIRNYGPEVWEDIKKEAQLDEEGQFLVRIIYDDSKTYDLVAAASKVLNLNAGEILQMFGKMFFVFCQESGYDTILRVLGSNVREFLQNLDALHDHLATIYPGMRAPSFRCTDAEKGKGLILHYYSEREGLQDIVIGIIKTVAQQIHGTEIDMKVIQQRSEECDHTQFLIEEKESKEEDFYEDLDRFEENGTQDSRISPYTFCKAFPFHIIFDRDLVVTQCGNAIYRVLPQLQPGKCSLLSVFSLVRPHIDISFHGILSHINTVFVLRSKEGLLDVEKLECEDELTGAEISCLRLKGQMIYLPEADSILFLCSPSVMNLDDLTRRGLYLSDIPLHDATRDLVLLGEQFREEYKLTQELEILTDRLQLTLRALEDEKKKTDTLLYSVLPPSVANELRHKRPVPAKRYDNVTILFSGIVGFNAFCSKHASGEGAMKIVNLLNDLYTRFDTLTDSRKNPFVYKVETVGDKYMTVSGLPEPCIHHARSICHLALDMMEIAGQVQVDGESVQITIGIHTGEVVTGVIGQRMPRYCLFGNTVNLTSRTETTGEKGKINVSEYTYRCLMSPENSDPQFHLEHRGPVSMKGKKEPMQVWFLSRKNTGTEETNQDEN
# Assay: Action on recombinant guanylate cyclase reporter cell line
# Format: cell-based
# Conditions: in some cases mean values from individual determinations
# Method in brief: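 Reported value is the minimal effective concentration (MEC), in some cases a mean of single runs, taken from a recombinant rat guanylate cyclase reporter cell line.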
row,SMILES,MEC (minimal effective concentration)
1,"CCC(C)(N)CNC(=O)c1c(C)nc2c(OCc3c(F)cccc3F)cc(Cl)cn12 (single isomer, unassigned) [Example 195, ent-N-(2-Amino-2-methylbutyl)-6-chloro-8-[(2,6-difluorobenzyl)oxy]-2-methylimidazo[1,2-a]-pyridine-3-carboxamide]",0.30 µM
2,"Cc1nc2c(OCC3CCCCC3)cccn2c1C(=O)NC(CN)c1ccc(Cl)cc1 (racemic) [Example 43, rac-N-[2-Amino-1-(4-chlorophenyl)ethyl]-8-(cyclohexylmethoxy)-2-methylimidazo[1,2-a]-pyridine-3-carboxamide]",1.00 µM
3,"Cc1nc2c(OCc3c(F)cccc3F)cccn2c1C(=O)NC(CN)COC(C)C (racemic) [Example 63, rac-N-(1-Amino-3-isopropoxypropan-2-yl)-8-[(2,6-difluorobenzyl)oxy]-2-methylimidazo[1,2-a]-pyridine-3-carboxamide]",0.30 µM
4,"Cc1cc(OCc2c(F)cccc2F)c2nc(C)c(C(=O)NCC(N)CCS(C)(=O)=O)n2c1 (racemic) [Example 413, rac-N-[2-amino-4-(methylsulfonyl)butyl]-8-[(2,6-difluorobenzyl)oxy]-2,6-dimethylimidazo[1,2-a]pyridine-3-carboxamide]",5.5 µM
5,"CCCC[C@H](CN(CC)CC)NC(=O)c1c(C)nc2c(OCc3c(F)cccc3F)cccn12 [Example 69, ent-8-[(2R)-1-(diethylamino)hexan-2-yl]-8-[(2,6-difluorobenzyl)oxy]-2-methylimidazo[1,2-a]-pyridine-3-carboxamide]",1.00 µM
6,"Cc1nc2c(OCc3c(F)cccc3F)cc(Cl)cn2c1C(=O)NCC(C)N (racemic) [Example 23, rac-N-(2-aminopropyl)-6-chloro-8-[(2,6-difluorobenzyl)oxy]-2-methylimidazo[1,2-a]-pyridine-3-carboxamide]",0.30 µM
7,"NCC(NC(=O)c1cnc2c(OCc3c(F)cccc3F)cccn12)c1ccc(F)c(F)c1 (stereo not drawn) [Example 55, ent-N-[2-amino-1-(3,4-difluorophenyl)ethyl]-8-[(2,6-difluorobenzyl)oxy]imidazo[1,2-a]pyridine-3-carboxamide dihydrochloride]",2.00 µM
8,"CCC(C)(N)CNC(=O)c1c(C)nc2c(OCc3c(F)cccc3F)cc(Cl)cn12 (racemic) [Example 157, rac-N-(2-amino-2-methylbutyl)-6-chloro-8-[(2,6-difluorobenzyl)oxy]-2-methylimidazo[1,2-a]-pyridine-3-carboxamide]",0.30 µM
9,"Cc1nc2c(OCc3c(F)cccc3F)cc(Cl)cn2c1C(=O)NCCC1(N)CCCCC1 [Example 33, N-[2-(1-Aminocyclohexyl)ethyl]-6-chloro-8-[(2,6-difluorobenzyl)oxy]-2-methylimidazo[1,2-a]-pyridine-3-carboxamide]",0.30 µM
10,"Cc1cc(OCc2c(F)cccc2F)c2nc(C)c(C(=O)NC3(C)CCC3(C)N)n2c1 (single isomer, unassigned; enantiomer b) [Example 337, ent-N-[(2-amino-1,2-dimethylcyclobutyl]-8-[(2,6-difluorobenzyl)oxy]-2,6-dimethylimidazo[1,2-a]pyridine-3-carboxamide (Enantiomer B)]",0.55 µM
11,"COC(=O)c1cccc(C(N)CNC(=O)c2c(C)nc3c(OCc4c(F)cccc4F)cc(C)cn23)c1 (racemic) [Example 399, rac-Methyl 3-{1-amino-2-[({8-[(2,6-difluorobenzyl)oxy]-2,6-dimethylimidazo[1,2-a]pyridin-3-yl}carbonyl)amino]ethyl}benzoate]",1.00 µM
12,"Cc1nc2c(OCc3c(F)cccc3F)cccn2c1C(=O)N[C@H](C)CN1CCOCC1 [Example 170, 8-[(2,6-difluorobenzyl)oxy]-2-methyl-N-[(2R)-1-(morpholin-4-yl)propan-2-yl]imidazo[1,2-a]-pyridine-3-carboxamide]",3.00 µM
13,"CCCC[C@H](CN1CCCC1)NC(=O)c1c(C)nc2c(OCc3c(F)cccc3F)cccn12 [Example 66, ent-8-[(2,6-difluorobenzyl)oxy]-2-methyl-N-[(2R)-1-(pyrrolidin-1-yl)hexan-2-yl]imidazo[1,2-a]-pyridine-3-carboxamide]",1.00 µM
14,"Cc1nc2c(OCc3c(F)cccc3F)cc(Cl)cn2c1C(=O)NCC(C)N (single isomer, unassigned) [Example 29, ent-N-(2-Aminopropyl)-6-chloro-8-[(2,6-difluorobenzyl)oxy]-2-methylimidazo[1,2-a]pyridine-3-carboxamide]",0.20 µM
15,"COCC(C)(N)CNC(=O)c1c(C)nc2c(OCc3c(F)cccc3F)cccn12 (single isomer, unassigned) [Example 214, ent-N-(2-Amino-3-methoxy-2-methylpropyl)-8-[(2,6-difluorobenzyl)oxy]-2-methylimidazo[1,2-a]-pyridine-3-carboxamide]",0.30 µM
16,"Cc1nc2c(OCc3c(F)cccc3F)cccn2c1C(=O)NCC(C)(N)CO (racemic) [Example 273, rac-N-(2-Amino-3-hydroxy-2-methylpropyl)-8-[(2,6-difluorobenzyl)oxy]-2-methylimidazo[1,2-a]-pyridine-3-carboxamide]",1.00 µM
17,"COC(=O)[C@@H](N)CCCCNC(=O)c1c(C)nc2c(OCc3c(F)cccc3F)cc(C)cn12 [Example 294, Methyl N^6-({8-[(2,6-difluorobenzyl)oxy]-2,6-dimethylimidazo[1,2-a]pyridin-3-yl}carbonyl)-L-lysinate]",0.065 µM
18,"Cc1cc(OCc2c(F)cccc2F)c2nc(C)c(C(=O)NC3CCCCNC3)n2c1 (racemic) [Example 316, rac-N-(azepan-3-yl)-8-[(2,6-difluorobenzyl)oxy]-2,6-dimethylimidazo[1,2-a]pyridine-3-carboxamide]",0.30 µM
19,"CCOCC(CN)NC(=O)c1c(C)nc2c(OCc3c(F)cccc3F)cc(Cl)cn12 (single isomer, unassigned) [Example 57, ent-N-(1-amino-3-ethoxypropan-2-yl)-6-chloro-8-[(2,6-difluorobenzyl)oxy]-2-methylimidazo[1,2-a]-pyridine-3-carboxamide]",0.30 µM
20,"C#Cc1cc(OCc2c(F)cccc2F)c2nc(C)c(C(=O)NCC(C)(N)CCC)n2c1 (stereo not drawn) [Example 355, ent-N-(2-amino-2-methylpentyl)-8-[(2,6-difluorobenzyl)oxy]-6-ethynyl-2-methylimidazo[1,2-a]pyridine-3-carboxamide Formate]",0.30 µM
21,"CCCC(C)(N)CNC(=O)c1c(C)nc2c(OCc3c(F)c(F)cc(F)c3F)cc(C)cn12 (racemic) [Example 311, rac-N-(2-amino-2-methylpentyl)-2,6-dimethyl-8-[(2,3,5,6-tetrafluorobenzyl)oxy]imidazo[1,2-a]pyridine-3-carboxamide]",0.30 µM
22,"Cc1cc(OCc2c(F)cccc2F)c2nc(C)c(C(=O)NCC(C)(N)C3CC3)n2c1 (racemic) [Example 259, rac-N-(2-Amino-2-cyclopropylpropyl)-8-[(2,6-difluorobenzyl)oxy]-2,6-dimethylimidazo[1,2-a]-pyridine-3-carboxamide]",0.03 µM
23,"Cc1cc(OCc2c(F)cccc2F)c2nc(C)c(C(=O)NC3(C)CCC3(C)N)n2c1 (single isomer, unassigned; enantiomer a) [Example 336, ent-N-[(2-amino-1,2-dimethylcyclobutyl]-8-[(2,6-difluorobenzyl)oxy]-2,6-dimethylimidazo[1,2-a]pyridine-3-carboxamide (Enantiomer A)]",0.30 µM
